The text below walks through data of US8691859B2 (priority 2005, dated 2014).

Values after ≈ are worked out from the molar mass of the structure shown.

Test [1] concerns B. anthracis GFP sterne spores. Put plainly: microbe, parasite or virus in culture. The note with it: for MIC: Bacillus anthracis, read-out: MIC B. anthracis spores. The test is classed as cell-based.
For test [2], the target named is anthrax lethal factor (Bacillus anthracis, UniProt P15917). The test is classed as biochemical.
Chain of anthrax lethal factor (P15917 34-809 limits assumed): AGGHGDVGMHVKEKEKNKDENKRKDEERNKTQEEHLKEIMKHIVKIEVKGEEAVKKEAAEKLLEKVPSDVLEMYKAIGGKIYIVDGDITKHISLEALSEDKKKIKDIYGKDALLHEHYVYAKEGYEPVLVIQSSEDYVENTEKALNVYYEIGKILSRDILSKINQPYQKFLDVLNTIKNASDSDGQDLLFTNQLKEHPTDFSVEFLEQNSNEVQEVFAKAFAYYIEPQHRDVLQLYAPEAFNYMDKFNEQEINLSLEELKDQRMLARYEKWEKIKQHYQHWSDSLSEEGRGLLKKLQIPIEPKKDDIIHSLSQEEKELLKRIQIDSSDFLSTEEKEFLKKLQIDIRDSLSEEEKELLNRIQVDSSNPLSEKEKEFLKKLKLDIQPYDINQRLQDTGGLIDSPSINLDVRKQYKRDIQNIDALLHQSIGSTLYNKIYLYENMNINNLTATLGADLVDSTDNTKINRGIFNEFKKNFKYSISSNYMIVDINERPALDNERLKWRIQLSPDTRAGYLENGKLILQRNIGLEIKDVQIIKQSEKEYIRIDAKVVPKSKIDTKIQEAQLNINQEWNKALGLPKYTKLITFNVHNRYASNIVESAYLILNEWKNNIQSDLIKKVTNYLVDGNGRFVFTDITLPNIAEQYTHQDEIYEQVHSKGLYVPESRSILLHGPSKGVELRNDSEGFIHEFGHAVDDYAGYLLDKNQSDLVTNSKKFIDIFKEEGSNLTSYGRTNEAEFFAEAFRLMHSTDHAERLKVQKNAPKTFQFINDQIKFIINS
Test [3] deals with B. anthracis GFP sterne vegetative cells. Put plainly: microbe, parasite or virus in culture. The test is classed as cell-based. The note with it: Bacillus anthracis, read-out: MIC B. anthracis vegetative cells.
Test [4] has as its system Burkholderia mallei. As to the kind of experiment: microbe, parasite or virus in culture. Format: cell-based.
The subject of test [5] is Burkholderia pseudomallei. Put plainly: microbe, parasite or virus in culture. The test is classed as cell-based.
For test [6], the system named is K. pneumoniae. As to the kind of experiment: microbe, parasite or virus in culture. Particulars: Klebsiella pneumoniae. The test is classed as cell-based.
Test [7] relates to E. coli. As to the kind of experiment: microbe, parasite or virus in culture. The test is classed as cell-based. Particulars: Escherichia coli.
Test [8] has as its system Ames spores. Put plainly: microbe, parasite or virus in culture. The test is classed as cell-based, B. anthracis. Particulars: Bacillus anthracis.
For test [9], the system named is Burkholderia thailandensis. As to the kind of experiment: microbe, parasite or virus in culture. Format: cell-based.
For test [10], the system named is B. anthracis Ames. Put plainly: microbe, parasite or virus in culture. The test is classed as cell-based. Particulars: Bacillus anthracis.
Test [11] concerns P. aeruginosa PAO1. As to the kind of experiment: microbe, parasite or virus in culture. The note with it: Pseudomonas aeruginosa. Format: cell-based.
Test [12] has as its system B. subtilis. As to the kind of experiment: microbe, parasite or virus in culture. Format: cell-based. Particulars: Bacillus subtilis.
Test [13] deals with Sterne spores. The test is classed as cell-based, B. anthracis.
For test [14], the system named is Methicillin resistant S. aureus. As to the kind of experiment: microbe, parasite or virus in culture. Format: cell-based. Particulars: Staphylococcus aureus.
In test [15] the test system is Ames spores. As to the kind of experiment: microbe, parasite or virus in culture. Format: cell-based, B. anthracis. The note with it: Bacillus anthracis. The source holds these as a separate data set.
The test system of test [16] is B. licheniformis. As to the kind of experiment: microbe, parasite or virus in culture. Format: cell-based. Particulars: Bacillus licheniformis.
For test [17], the system named is B. brevis. Put plainly: microbe, parasite or virus in culture. Particulars: Brevibacillus brevis. The test is classed as cell-based.
Test [18] concerns B. pumilus. Put plainly: microbe, parasite or virus in culture. The test is classed as cell-based. The note with it: Bacillus pumilus.
Test [19] relates to B. megaterium. As to the kind of experiment: microbe, parasite or virus in culture. Format: cell-based. The note with it: Priestia megaterium.
For test [20], the system named is E. feacalis. As to the kind of experiment: organism not typed. Format: cell-based.
Test [21] concerns S. aureus. As to the kind of experiment: microbe, parasite or virus in culture. Format: cell-based. The note with it: Staphylococcus aureus.
Test [22] deals with B. cepacia. As to the kind of experiment: microbe, parasite or virus in culture. The note with it: Burkholderia cepacia. The test is classed as cell-based.
Test [23] relates to Y. pestis. Put plainly: microbe, parasite or virus in culture. Format: cell-based. The note with it: Yersinia pestis.

Consider `C(=C\c1cc2ccc(C3=NCCN3)cc2[nH]1)/c1ccc2cc(C3=NCCN3)[nH]c2c1` [NSC 341907, 6-(4,5-dihydro-1H-imidazol-2-yl)-2-[(E)-2-[2-(4,5-dihydro-1H-imidazol-2-yl)-1H-indol-6-yl]ethenyl]-1H-indole], for which the MIC came to 9.34 µg/mL (≈ 23.7 µM) in test [1] and 18.7 µg/mL (≈ 47.4 µM) in test [3]. The “inhibition of the protease activity of anthrax lethal factor” value (“inhibition” below) in [2] is on record as “inhibit”.

For the compound `N=C(N)c1ccc2oc(/C=C/C=C/c3cc4cc(C(=N)N)ccc4o3)cc2c1` [NSC 300511, 2-[(1E,3E)-4-(5-carbamimidoylbenzofuran-2-yl)buta-1,3-dienyl]benzofuran-5-carboximidamide], the MIC in test [1] is 2.21 µg/mL (≈ 5.98 µM); in [3], 17.7 µg/mL (≈ 47.8 µM). Moreover, the “inhibition” value in test [2] is “inhibit”.

On to `Cc1c(/C=C/c2oc3ccc(C(=N)N)cc3c2C)oc2ccc(C(=N)N)cc12` [NSC 266474, 2-[(E)-2-(5-carbamimidoyl-3-methyl-benzofuran-2-yl)ethenyl]-3-methyl-benzofuran-5-carboximidamide], for which the MIC in [1] and in test [3] was more than 17.8 µg/mL each time. Further, in [2], the “inhibition” value was “inhibit”.

Regarding `N=C(N)c1ccc(/C=C/C=C/c2cc3cc(C(=N)N)ccc3o2)cc1` [NSC 308572, 2-[(1E,3E)-4-(4-carbamimidoylphenyl)buta-1,3-dienyl]benzofuran-5-carboximidamide], the MIC in [1] came out at 8.06 µg/mL (≈ 24.4 µM); in [3] it was 16.1 µg/mL (≈ 48.8 µM). Also, the “inhibition” value in [2] is “inhibit”.

For `c1cc2cc(-c3ccc4cc(C5=NCCN5)[nH]c4c3)[nH]c2cc1C1=NCCN1` [NSC 330687, 2-(4,5-dihydro-1H-imidazol-2-yl)-6-[6-(4,5-dihydro-1H-imidazol-2-yl)-1H-indol-2-yl]-1H-indole], the MIC in test [4] is 8.82 µg/mL (≈ 23.9 µM); in test [5], more than 17.6 µg/mL; in test [6], more than 17.6 µg/mL; in test [7] it was 1.1 µg/mL (≈ 2.99 µM); in test [8] it was 0.276 µg/mL (≈ 0.749 µM); in [9] it was 17.6 µg/mL (≈ 47.9 µM). Besides, the MIC stood at 1.1 µg/mL (≈ 2.99 µM) in test [10]; 17.6 µg/mL (≈ 47.9 µM) in [11]; 0.551 µg/mL (≈ 1.5 µM) in test [12]; 2.2 µg/mL (≈ 5.97 µM) in test [14]; 2.21 µg/mL (≈ 5.99 µM) in test [16]; 0.276 µg/mL (≈ 0.749 µM) in test [17]. Also, the MIC in [1] is 0.551 µg/mL (≈ 1.5 µM); in test [18] it was 0.138 µg/mL (≈ 0.375 µM); in [19] it was 0.551 µg/mL (≈ 1.5 µM); in test [20], 2.21 µg/mL (≈ 5.98 µM); in test [21] it was 1.1 µg/mL (≈ 2.99 µM); in test [22], 4.41 µg/mL (≈ 12 µM). The MIC was found to be 1.1 µg/mL (≈ 2.99 µM) in test [3] and 8.82 µg/mL (≈ 23.9 µM) in test [23]. The “effect on spore germination” value in [13] is on record as “results to those of NSC 317881 were obtained”. In [15], this compound returned an MBC of 0.276 µg/mL (≈ 0.749 µM).

Consider `C(=C\c1cc2cc(C3=NCCN3)ccc2[nH]1)/c1ccc(C2=NCCN2)cc1` [NSC 317885, 5-(4,5-dihydro-1H-imidazol-2-yl)-2-[(E)-2-[4-(4,5-dihydro-1H-imidazol-2-yl)phenyl]ethenyl]-1H-indole], for which the MIC in test [1] and in test [3] was more than 17.1 µg/mL each time. Moreover, in [2], the “inhibition” value is listed as “inhibit”.

Consider `N=C(N)c1ccc2oc(CCc3cc4ccc(C(=N)N)cc4[nH]3)cc2c1` [NSC 290109, 2-[2-(5-carbamimidoylbenzofuran-2-yl)ethyl]-1H-indole-6-carboximidamide], for which the MIC in test [1] and in test [3] was 8.36 µg/mL (≈ 24.2 µM) in each case. Besides, the “inhibition” value in [2] is reported as “inhibit”.

Consider `C(=C\c1cc2ccc(C3=NCCN3)cc2o1)/c1cc2ccc(C3=NCCN3)cc2[nH]1` [NSC 294201, 6-(4,5-dihydro-1H-imidazol-2-yl)-2-[(E)-2-[6-(4,5-dihydro-1H-imidazol-2-yl)benzofuran-2-yl]ethenyl]-1H-indole], for which the MIC in [1] was 4.68 µg/mL (≈ 11.8 µM); in [3], 18.7 µg/mL (≈ 47.3 µM). Further, the “inhibition” value in [2] is recorded as “inhibit”.

Turning to `C(=C\c1cc2cc(C3=NCCN3)ccc2o1)/c1cc2cc(C3=NCCN3)ccc2[nH]1` [NSC 290108, 5-(4,5-dihydro-1H-imidazol-2-yl)-2-[(E)-2-[5-(4,5-dihydro-1H-imidazol-2-yl)benzofuran-2-yl]ethenyl]-1H-indole], the values for the MIC in [1] and in test [3] were 18.5 µg/mL (≈ 46.7 µM) and more than 18.5 µg/mL, respectively. For the same compound, the “inhibition” value in test [2] is on record as “inhibit”.

For the compound `C(=C\c1cc2ccc(C3=NCCN3)cc2o1)/c1cc2cc(C3=NCCN3)ccc2[nH]1` [NSC 294204, 5-(4,5-dihydro-1H-imidazol-2-yl)-2-[(E)-2-[6-(4,5-dihydro-1H-imidazol-2-yl)benzofuran-2-yl]ethenyl]-1H-indole], the results for the MIC in test [1] and in test [3] were 18.7 µg/mL (≈ 47.3 µM) and more than 18.7 µg/mL, respectively. In [2], the “inhibition” value is given as “inhibit”.

On to `O=C(Nc1ccc(C2=NCCN2)cc1)c1cc2ccc(C3=NCCN3)cc2[nH]1` [NSC 294206, 6-(4,5-dihydro-1H-imidazol-2-yl)-N-[4-(4,5-dihydro-1H-imidazol-2-yl)phenyl]-1H-indole-2-carboxamide], for which the MIC in test [1] is 8.9 µg/mL (≈ 23.9 µM); in test [3], 17.8 µg/mL (≈ 47.8 µM). For the same compound, in test [2], the “inhibition” value is “inhibit”.

As to `N=C(N)c1ccc2cc(/C=C/c3cc4ccc(C(=N)N)cc4o3)[nH]c2c1` [NSC 294200, 2-[(E)-2-(6-carbamimidoylbenzofuran-2-yl)ethenyl]-1H-indole-6-carboximidamide], the results for the MIC in test [1] and in test [3] were 2.08 µg/mL (≈ 6.06 µM) and 4.16 µg/mL (≈ 12.1 µM), respectively. Further, the “inhibition” value in test [2] is reported as “inhibit”.

On to `N=C(N)c1ccc(/C=C/c2cc3cc(C(=N)N)ccc3[nH]2)cc1` [NSC 317884, 2-[(E)-2-(4-carbamimidoylphenyl)ethenyl]-1H-indole-5-carboximidamide], for which the figures for the MIC in [1] and in test [3] were 15 µg/mL (≈ 49.6 µM) and more than 15 µg/mL, respectively. Further, in [2], the “inhibition” value was “inhibit”.

On to `c1cc(-c2[nH]c3cc(C4=NCCN4)ccc3c2-c2cc3ccc(C4=NCCN4)cc3[nH]2)ccc1C1=NCCN1` [NSC 341911, 6-(4,5-dihydro-1H-imidazol-2-yl)-3-[6-(4,5-dihydro-1H-imidazol-2-yl)-1H-indol-2-yl]-2-[4-(4,5-dihydro-1H-imidazol-2-yl)phenyl]-1H-indole], for which the “MIC B. anthracis spores” value in test [1] amounted to 24.88 µg/mL (≈ 48.5 µM). For the same compound, the “inhibition” value in test [2] is reported as “inhibit”. Also, the MIC in [3] was 24.9 µg/mL (≈ 48.5 µM).

Regarding `C(=C\c1cc2ccc(C3=NCCN3)cc2[nH]1)/c1ccc(C2=NCCN2)cc1` [NSC 317887, 6-(4,5-dihydro-1H-imidazol-2-yl)-2-[(E)-2-[4-(4,5-dihydro-1H-imidazol-2-yl)phenyl]ethenyl]-1H-indole], the values for the MIC in test [1] and in test [3] were 8.56 µg/mL (≈ 24.1 µM) and more than 17.1 µg/mL, respectively. In addition, in test [2], the “inhibition” value was “inhibit”.

`N=C(N)c1ccc2[nH]c(/C=C/c3cc4ccc(C(=N)N)cc4o3)cc2c1` [NSC 294203, 2-[(E)-2-(6-carbamimidoylbenzofuran-2-yl)ethenyl]-1H-indole-5-carboximidamide]: the MIC is 16.6 µg/mL (≈ 48.5 µM) in test [1] and more than 16.6 µg/mL in test [3]. In addition, the “inhibition” value in test [2] is reported as “inhibit”.

For `N=C(N)c1ccc(/C=C/c2cc3ccc(C(=N)N)cc3[nH]2)cc1` [NSC 317886, 2-[(E)-2-(4-carbamimidoylphenyl)ethenyl]-1H-indole-6-carboximidamide], the MIC in test [1] worked out at 7.52 µg/mL (≈ 24.8 µM); in [3], 15 µg/mL (≈ 49.5 µM). The “inhibition” value in test [2] is given as “inhibit”.

With `C(/C=C/c1cc2cc(C3=NCCN3)ccc2o1)=C\c1cc2cc(C3=NCCN3)ccc2o1` [NSC 308571, 2-[2-[(1E,3E)-4-[5-(4,5-dihydro-1H-imidazol-2-yl)benzofuran-2-yl]buta-1,3-dienyl]benzofuran-5-yl]-4,5-dihydro-1H-imidazole], the MIC in [1] stood at 9.9 µg/mL (≈ 23.4 µM); in test [3] it was 19.8 µg/mL (≈ 46.9 µM). The “inhibition” value in [2] is recorded as “inhibit”.

As to `N=C(N)c1ccc2[nH]c(/C=C/c3cc4cc(C(=N)N)ccc4o3)cc2c1` [NSC 290107, 2-[(E)-2-(5-carbamimidoylbenzofuran-2-yl)ethenyl]-1H-indole-5-carboximidamide], the results for the MIC in [1] and in [3] were 8.32 µg/mL (≈ 24.2 µM) and more than 16.6 µg/mL, respectively. In addition, the “inhibition” value in test [2] was “inhibit”.
